pKi: −log10 of the molar value.
What was measured:
[1] = target: dopaminergic receptors D2 (Homo sapiens, UniProt P14416); test: Radioligand binding assay, dopaminergic D2 receptors; conditions: for D2 [%] / inhibition at 1 µM: binding assay, test compound 1×10^−6 M; for pKi: read-out: Inhibition constants Ki for D2 receptors, D2
Summary of the method: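 Ki from Cheng–Prusoff conversion of Hill-fitted IC50 values, using the assay radioligand concentration and a Scatchard-determined KD. Specific binding, scintillation-counted, excluded signal remaining under excess unlabelled ligand.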

[2] = target: dopaminergic receptors D3 (Homo sapiens, UniProt P35462); test: Radioligand binding assay, dopaminergic D3 receptors; conditions: test compound 1×10^−6 M
Summary of the method: (§1)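 Scintillation read-out. Specific = total − nonspecific (excess cold ligand). Data as % of control specific binding / % inhibition; IC50 by Hill fit; Ki = IC50/(1+L/KD), KD from Scatchard plot.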

receptors D4.4 = target: T1, receptors D4.4 (Homo sapiens, UniProt P21917); test: Radioligand binding assay, dopaminergic D4 (D4.4) receptors; conditions: test compound 1×10^−6 M
T1 sequence (P21917 1-419): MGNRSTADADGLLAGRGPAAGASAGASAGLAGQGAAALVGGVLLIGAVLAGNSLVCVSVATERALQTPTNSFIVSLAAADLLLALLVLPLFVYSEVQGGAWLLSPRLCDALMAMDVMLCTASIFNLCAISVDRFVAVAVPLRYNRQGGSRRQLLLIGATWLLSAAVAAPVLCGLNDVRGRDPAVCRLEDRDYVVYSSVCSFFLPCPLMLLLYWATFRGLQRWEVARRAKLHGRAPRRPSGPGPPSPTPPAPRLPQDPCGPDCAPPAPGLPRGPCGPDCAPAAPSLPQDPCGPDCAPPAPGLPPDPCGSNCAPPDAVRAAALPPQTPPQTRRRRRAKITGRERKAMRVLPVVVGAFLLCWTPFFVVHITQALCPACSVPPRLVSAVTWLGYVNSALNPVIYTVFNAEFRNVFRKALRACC
Summary of the method: as §1

5-HT2A receptor = target: T2, 5-HT2A receptor (Homo sapiens, UniProt P28223); test: Radioligand binding assay, serotoninergic 5-HT2A receptors; conditions: for 5-HT2A [%] / inhibition at 1 µM: binding assay result in %, Table 5a; for pKi: read-out: Inhibition constants Ki, 5-HT2A
T2 construct: purchased PerkinElmer
Summary of the method: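 Competition curves from scintillation-counted specific binding (total minus binding with excess unlabelled ligand) were Hill-fitted to give IC50, converted to Ki via Cheng-Prusoff using Scatchard-derived Kd.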

5-HT6 receptor = target: T3, 5-HT6 receptor (Homo sapiens, UniProt P50406); test: Radioligand binding assay, serotoninergic 5-HT6 receptors; conditions: for 5-HT6 [%] / inhibition at 1 µM: binding assay result in %, Table 5a; for pKi: read-out: Inhibition constants Ki, 5-HT6
T3 construct: purchased PerkinElmer
Summary of the method: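 Values are Ki from Cheng–Prusoff, taking IC50 from Hill nonlinear regression of competition curves and KD from a Scatchard plot. Specific binding was total minus binding with excess unlabelled ligand. Radioligand displacement was detected by scintillation counting, and data were also reported as percent of control specific binding.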

[3] = system: α1 adrenergic receptors (rat cerebral cortex); test: Radioligand binding assay, adrenergic α1 receptors; conditions: test compound 1×10^−6 M
Summary of the method: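 Values derive from radioligand displacement, with non-specific binding defined by excess cold ligand and detection by scintillation. Hill-fit IC50s were converted to Ki via Cheng-Prusoff using Scatchard-derived Kd; percent inhibition of control specific binding also reported.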

M3 muscarinic receptors = target: T4, M3 muscarinic receptors (Homo sapiens, UniProt P20309); test: Radioligand binding assay, muscarinic M3 receptors; conditions: test compound 1×10^−6 M
T4 construct: expressed in transfected cells; host or cells: CHO cells
Summary of the method: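 Radioligand competition binding, detected by scintillation counting; non-specific binding defined with excess unlabelled ligand. Results given as % inhibition of control specific binding; IC50 from Hill-equation fit of competition curves, Ki via Cheng-Prusoff with radioligand KD from Scatchard plot.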

[4] = target: T5, serotonin transporter (SERT) (Homo sapiens, UniProt P31645); test: Radioligand binding assay, serotonin transporter (SERT); conditions: for SERT [%] / inhibition at 1 µM: binding assay, test compound 1×10^−6 M
T5 construct: expressed in transfected cells; host or cells: CHO cells
Summary of the method: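 Values are derived from competition curves fitted by the Hill equation to give IC50, then converted to Ki by Cheng-Prusoff with radioligand Kd from Scatchard analysis. Specific binding equals total minus non-specific (excess cold ligand), counted by scintillation, and is also expressed as percent inhibition of control.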

[5] = target: T6, H1 histaminergic receptors (Homo sapiens, UniProt P35367); test: Radioligand binding assay, histaminergic H1 receptors; conditions: human recombinant (HEK-293 cells), [3H]pyrilamine 1 nM
T6 construct: expressed in transfected cells; host or cells: HEK-293 cells
Summary of the method: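 Competition binding at human H1 receptors; specific binding taken as total minus non-specific binding in excess unlabelled ligand, scintillation read-out. IC50 from Hill-equation fit of competition curves; Ki by Cheng-Prusoff using radioligand concentration and Kd (from Scatchard plot).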

T6 sequence (P35367 whole entry): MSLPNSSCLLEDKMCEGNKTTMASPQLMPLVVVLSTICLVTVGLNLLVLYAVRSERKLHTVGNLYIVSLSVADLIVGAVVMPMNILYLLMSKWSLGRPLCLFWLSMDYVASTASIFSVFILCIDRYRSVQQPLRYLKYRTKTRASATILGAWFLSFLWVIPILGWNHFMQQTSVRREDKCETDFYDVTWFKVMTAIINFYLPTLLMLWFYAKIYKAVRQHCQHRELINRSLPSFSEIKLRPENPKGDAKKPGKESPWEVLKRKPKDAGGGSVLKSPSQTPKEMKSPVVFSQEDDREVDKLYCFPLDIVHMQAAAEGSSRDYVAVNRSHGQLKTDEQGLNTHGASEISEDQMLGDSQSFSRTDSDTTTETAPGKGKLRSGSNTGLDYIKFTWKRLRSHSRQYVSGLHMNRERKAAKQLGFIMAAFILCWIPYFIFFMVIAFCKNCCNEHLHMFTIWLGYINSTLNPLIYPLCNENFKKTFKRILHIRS
T3 sequence (P50406 whole entry): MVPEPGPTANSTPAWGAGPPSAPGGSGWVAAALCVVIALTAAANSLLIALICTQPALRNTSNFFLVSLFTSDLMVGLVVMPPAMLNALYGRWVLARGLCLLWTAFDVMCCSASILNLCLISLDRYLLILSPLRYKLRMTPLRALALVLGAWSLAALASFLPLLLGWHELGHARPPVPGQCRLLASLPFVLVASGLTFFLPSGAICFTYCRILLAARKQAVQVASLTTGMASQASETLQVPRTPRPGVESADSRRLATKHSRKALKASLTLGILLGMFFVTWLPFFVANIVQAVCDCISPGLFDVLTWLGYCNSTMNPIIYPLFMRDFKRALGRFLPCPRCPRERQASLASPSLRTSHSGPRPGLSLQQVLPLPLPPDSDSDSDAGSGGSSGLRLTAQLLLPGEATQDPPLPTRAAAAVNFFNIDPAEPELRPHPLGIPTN
dopaminergic receptors D3, sequence (P35462 whole entry): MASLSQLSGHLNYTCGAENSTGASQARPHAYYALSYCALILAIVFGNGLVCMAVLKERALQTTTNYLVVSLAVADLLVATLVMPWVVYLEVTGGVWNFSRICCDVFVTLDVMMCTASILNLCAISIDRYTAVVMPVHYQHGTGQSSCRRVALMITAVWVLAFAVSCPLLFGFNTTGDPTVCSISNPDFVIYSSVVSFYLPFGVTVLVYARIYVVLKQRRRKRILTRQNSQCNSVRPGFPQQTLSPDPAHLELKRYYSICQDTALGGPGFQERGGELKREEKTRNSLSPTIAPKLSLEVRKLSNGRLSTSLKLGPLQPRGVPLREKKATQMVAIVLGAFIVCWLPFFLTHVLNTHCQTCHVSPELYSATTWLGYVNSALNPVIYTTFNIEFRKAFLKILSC
T5 sequence (P31645 whole entry): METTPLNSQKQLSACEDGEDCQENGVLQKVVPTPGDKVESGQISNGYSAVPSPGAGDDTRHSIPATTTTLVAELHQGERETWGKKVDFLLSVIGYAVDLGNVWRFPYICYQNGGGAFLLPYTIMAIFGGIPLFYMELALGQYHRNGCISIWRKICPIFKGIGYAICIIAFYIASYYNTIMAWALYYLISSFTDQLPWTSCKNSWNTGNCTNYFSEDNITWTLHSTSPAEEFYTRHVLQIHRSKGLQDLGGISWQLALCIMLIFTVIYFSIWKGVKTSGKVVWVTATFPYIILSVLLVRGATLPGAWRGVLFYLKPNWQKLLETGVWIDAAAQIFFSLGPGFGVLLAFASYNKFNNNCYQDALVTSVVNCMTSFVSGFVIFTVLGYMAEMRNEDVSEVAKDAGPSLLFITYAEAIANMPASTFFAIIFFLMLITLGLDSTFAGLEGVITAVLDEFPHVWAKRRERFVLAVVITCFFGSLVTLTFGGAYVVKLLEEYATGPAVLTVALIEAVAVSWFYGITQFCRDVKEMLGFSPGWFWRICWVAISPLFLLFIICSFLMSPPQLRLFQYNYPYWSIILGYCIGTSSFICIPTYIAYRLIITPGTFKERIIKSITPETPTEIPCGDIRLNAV
dopaminergic receptors D2, sequence (P14416 whole entry): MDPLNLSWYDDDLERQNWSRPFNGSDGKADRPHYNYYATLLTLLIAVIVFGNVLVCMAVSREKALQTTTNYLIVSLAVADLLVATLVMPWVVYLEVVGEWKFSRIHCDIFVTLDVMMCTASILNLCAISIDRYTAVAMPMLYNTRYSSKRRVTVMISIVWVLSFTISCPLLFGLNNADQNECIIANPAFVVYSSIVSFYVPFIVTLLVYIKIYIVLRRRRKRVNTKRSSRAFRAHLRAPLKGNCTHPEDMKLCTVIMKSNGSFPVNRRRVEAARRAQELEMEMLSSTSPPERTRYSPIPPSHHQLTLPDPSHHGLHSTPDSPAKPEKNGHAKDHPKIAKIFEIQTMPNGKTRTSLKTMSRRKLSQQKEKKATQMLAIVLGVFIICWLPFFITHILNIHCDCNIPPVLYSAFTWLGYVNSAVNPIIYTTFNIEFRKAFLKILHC
T4 sequence (P20309 whole entry): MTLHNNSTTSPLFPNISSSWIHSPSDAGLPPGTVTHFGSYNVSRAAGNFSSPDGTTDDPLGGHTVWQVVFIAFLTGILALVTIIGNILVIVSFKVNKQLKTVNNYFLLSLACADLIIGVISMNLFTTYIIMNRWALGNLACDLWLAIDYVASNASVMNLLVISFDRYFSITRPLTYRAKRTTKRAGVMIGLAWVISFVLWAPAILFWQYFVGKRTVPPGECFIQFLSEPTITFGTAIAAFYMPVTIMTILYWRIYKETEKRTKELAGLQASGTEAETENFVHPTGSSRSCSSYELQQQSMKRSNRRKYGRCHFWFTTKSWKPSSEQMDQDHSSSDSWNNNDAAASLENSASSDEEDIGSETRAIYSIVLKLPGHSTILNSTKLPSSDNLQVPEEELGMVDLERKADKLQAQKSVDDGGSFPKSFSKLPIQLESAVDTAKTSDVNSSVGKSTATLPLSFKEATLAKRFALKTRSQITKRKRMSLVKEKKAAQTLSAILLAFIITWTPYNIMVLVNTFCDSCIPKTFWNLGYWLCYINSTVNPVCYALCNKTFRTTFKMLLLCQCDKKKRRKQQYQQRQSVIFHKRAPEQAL
T2 sequence (P28223 whole entry): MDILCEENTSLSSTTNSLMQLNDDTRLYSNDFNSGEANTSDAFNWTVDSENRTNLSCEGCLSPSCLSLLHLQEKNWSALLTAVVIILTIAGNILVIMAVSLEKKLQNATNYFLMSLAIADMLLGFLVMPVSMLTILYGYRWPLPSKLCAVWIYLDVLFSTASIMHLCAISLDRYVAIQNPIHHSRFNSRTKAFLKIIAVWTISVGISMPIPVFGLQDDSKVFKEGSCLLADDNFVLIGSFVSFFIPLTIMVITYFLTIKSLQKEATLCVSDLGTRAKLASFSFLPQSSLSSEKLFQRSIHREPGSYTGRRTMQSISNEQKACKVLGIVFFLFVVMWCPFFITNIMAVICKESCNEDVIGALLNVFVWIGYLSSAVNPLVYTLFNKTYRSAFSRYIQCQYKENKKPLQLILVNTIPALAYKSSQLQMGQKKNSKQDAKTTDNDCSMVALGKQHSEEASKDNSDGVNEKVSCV

SMILES | α1 [%] [3] | inhibition at 1 µM [1] | inhibition at 1 µM [2] | inhibition at 1 µM (receptors D4.4) | inhibition at 1 µM (5-HT2A receptor) | inhibition at 1 µM (5-HT6 receptor) | inhibition at 1 µM (M3 muscarinic receptors) | inhibition at 1 µM [4] | inhibition at 1 µM [5] | other results
O=S(=O)(NC1CN(CCOc2cccc3c2OCCO3)C1)c1ccc(Cl)cc1 [Compound 92, 4-Chloro-N-[1-[2-(2,3-dihydro-1,4-benzodioxan-8-yloxy)ethyl]azetidin-3-yl]benzene-sulphonamide] | 47% | – | – | – | – | – | – | – | – | D2 [%] [1]: 49%; D3 [%] [2]: 60%; D4.4 [%] (receptors D4.4): 35%; 5-HT2A [%] (5-HT2A receptor): 60%; 5-HT6 [%] (5-HT6 receptor): 23%; M3 [%] (M3 muscarinic receptors): 4%; SERT [%] [4]: 10%; H1 [%] [5]: 6%
O=S(=O)(NC1CCN(CCOc2cccc3ccccc23)C1)c1cccc(O)c1 (stereo not shown) [Compound 115, 3-Hydroksy-N-[1-[2-(1-naphthyloxy)ethyl]pyrrolidin-3-yl]benzenesulphonamide] | 24% | – | – | – | – | – | – | – | – | D2 [%] [1]: 74%; D3 [%] [2]: 97%; D4.4 [%] (receptors D4.4): 55%; 5-HT2A [%] (5-HT2A receptor): 99%; 5-HT6 [%] (5-HT6 receptor): 88%; M3 [%] (M3 muscarinic receptors): 13%; SERT [%] [4]: 83%; H1 [%] [5]: 72%
O=S(=O)(NC1CCN(CCCc2c[nH]c3ccc(F)cc23)C1)c1ccc(Cl)cc1 (stereo not shown) [Compound 77, 4-Chloro-N-[1-[3-(5-fluoro-1H-indol-3-yl)propyl]pyrrolidin-3-yl]-benzenesulphonamide] | 29% | 93% | 93% | 78% | 100% | 95% | 17% | 104% | 54% | pKi (5-HT6 receptor): 7.41; pKi ([4]; read-out: Inhibition constants Ki for SERT, SERT): 9.30
Cc1ccc2sc(S(=O)(=O)N[C@H]3CCN(CCCc4noc5cc(F)ccc45)C3)cc2c1 [Compound 229, N-[(3S)-1-[3-(6-Fluoro-1,2-benzoxazol-3-yl)propyl]pyrrolidin-3-yl]-5-methylbenzothiophene-2-sulphonamide] | 89% | 101% | 93% | 86% | – | 98% | 15% | 50% | 75% | pKi [1]: 8.62; pKi (5-HT2A receptor): 9.22; pKi (5-HT6 receptor): 7.37
O=S(=O)(NC1CN(CCOc2cccc3[nH]ccc23)C1)c1ccc(F)cc1 [Compound 46, 4-Fluoro-N-[1-[2-(1H-indol-4-yloxy)ethyl]azetidin-3-yl]benzene-sulphonamide] | 85% | 93% | 104% | 72% | 34% | 9% | -13% | 7% | 6% | –
O=S(=O)(NC1CN(CCOc2cccc3[nH]ccc23)C1)c1ccc2ccccc2c1 [Compound 50, N-[1-[2-(1H-Indol-4-yloxy)ethyl]azetidin-3-yl]naphthalene-2-sulphonamide] | 88% | 96% | 104% | 94% | 97% | 43% | 2% | 20% | 34% | –
O=S(=O)(N[C@H]1CCN(CCCc2noc3cc(F)ccc23)C1)c1cc2ccccc2s1 [Compound 197, N-[(3S)-1-[3-(6-Fluoro-1,2-benzoxazol-3-yl)propyl]pyrrolidin-3-yl]benzo-thiophene-2-sulphonamide] | 93% | 101% | 83% | 81% | 99% | 97% | 26% | 58% | 76% | pKi [1]: 8.24; pKi (5-HT2A receptor): 9.15; pKi (5-HT6 receptor): 7.80
O=S(=O)(NC1CCN(CCCc2noc3cc(F)ccc23)C1)c1cc2ccccc2s1 (stereo not shown) [Compound 25, N-[1-[3-(6-Fluoro-1,2-benzoxazol-3-yl)propyl]pyrrolidin-3-yl]-benzothiophene-2-sulphonamide] | 85% | 98% | 97% | 84% | 102% | 95% | 23% | 42% | 75% | –
Cc1cc(S(=O)(=O)NC2CCN(CCCc3noc4cc(F)ccc34)C2)c(C)s1 (stereo not shown) [Compound 221, N-[1-[3-(6-Fluoro-1,2-benzoxazol-3-yl)propyl]pyrrolidin-3-yl]-2,5-dimethyl-thiophene-3-sulphonamide] | 85% | 97% | 92% | 93% | 101% | 92% | 12% | 67% | 66% | –
COc1cccc(S(=O)(=O)NCC2CN(CCCc3noc4cc(F)ccc34)C2)c1 [Compound 143, N-[[1-[3-(6-Fluoro-1,2-benzoxazol-3-yl)propyl]azetidin-3-yl]methyl]-3-methoxy-benzenesulphonamide] | 97% | 80% | 46% | 80% | 94% | 78% | -4% | 6% | 36% | –
O=S(=O)(NC1CCN(CCCc2noc3cc(F)ccc23)C1)c1ccc2cc(Cl)ccc2c1 (stereo not shown) [Compound 23, 6-Chloro-N-[1-[3-(6-fluoro-1,2-benzoxazol-3-yl)propyl]pyrrolidin-3-yl]naphthalene-2-sulphonamide] | 64% | 100% | 95% | 55% | 99% | 97% | 10% | 53% | 60% | –
CC(C)(C)c1ccc(S(=O)(=O)NCC2CN(CCOc3cccc4c3OCCO4)C2)cc1 [Compound 181, 4-tert-Butyl-N-[[1-[2-(2,3-dihydro-1,4-benzodioxin-5-yloxy)ethyl]azetidin-3-yl]methyl]benzenesulphonamide] | 50% | 73% | 77% | 64% | 89% | 30% | 0% | 26% | 27% | –
O=S(=O)(NCC1CCN(CCCc2noc3cc(F)ccc23)C1)c1ccc2ccccc2c1 (stereo not shown) [Compound 240, N-[[1-[3-(6-Fluoro-1,2-benzoxazol-3-yl)propyl]pyrrolidin-3-yl]methyl]-naphthalene-2-sulphonamide] | 86% | 95% | 75% | 57% | 99% | 93% | 21% | 43% | 55% | –
O=S(=O)(NCC1CCN(CCCc2noc3cc(F)ccc23)C1)c1ccc(-c2ccccc2)cc1 (stereo not shown) [Compound 241, N-[[1-[3-(6-Fluoro-1,2-benzoxazol-3-yl)propyl]pyrrolidin-3-yl]methyl]-4-phenyl-benzenesulphonamide] | 62% | 81% | 87% | 33% | 97% | 68% | 19% | 71% | 69% | –

Reference: US20140135310A1, “SULPHONAMIDE DERIVATIVES OF ALICYCLIC AMINES FOR THE TREATMENT OF CENTRAL NERVOUS SYSTEM DISEASES” (Adamed Sp. z o.o., priority 2011, published 2014)
